{"source": "paper PMC5794198", "about": "“Inhibitors of Trypanosoma cruzi Sir2 related protein 1 as potential drugs against Chagas disease” (PLoS Neglected Tropical Diseases, 2018)", "key": {"[1]": {"assay": "C2C12 host cell cytotoxicity (cell ratio) in HCS assay", "format": "cell-based, Mouse", "conditions": "mouse, cell ratio, 72 h; read-out: C2C12 Cytotoxicity (CC50 ± SD)", "procedure": "(§1) For the evaluation of the activity against T. cruzi amastigotes, high-content screening (HCS) was designed. In summary, 100 μL of host C2C12 cells (ATCC) were seeded in clear bottom black 96-well plates at a density of 2.5 x 10^4 cells/mL (2.5 × 10^3 cells/well). […] The parasites were allowed to infect for a 24 hr period, after which compounds were added in a volume of 50 μL. […] After 72 hrs of compound incubation, the wells were fixed with 4% paraformaldehyde for 15 to 30 mins. The plates were then washed once with deionized water and stained with a solution of DAPI (3 μM) for 1 hour. Plates were imaged in an INCell 2000 (GE Healthcare) high-content analyser by taking 16 pictures per well at 20 X objective amplification. Images were analysed with INCell Developer software (GE Healthcare) using the segmentation of host cell nuclei and parasite kinetoplast DNA. The measurement output used was the average number of parasites per cell calculated by the ratio of host cell nuclei/parasite kinetoplast DNA."}, "[2]": {"tested_on": "C2C12 cells", "assay": "C2C12 host cell cytotoxicity (cell ratio) in HCS assay", "format": "cell-based, Mouse", "conditions": "CC50 cell line (C2C12)/EC50 T. cruzi", "procedure": "as §1"}, "[3]": {"assay": "MTT cytotoxicity on hepatocytes", "format": "cell-based", "conditions": "hepatocytes, CC50 cell line / EC50 T. cruzi; read-out: Selectivity Index, hepatocytes", "procedure": "(§2) To evaluate toxicity towards mammalian cell lines (hepatocytes (Seralab), neurons and MDCK cells (ATCC); a renal cell line from dogs), all the compounds were assayed with MTT [66]. Additionally, for cardiotoxicity evaluation, where toxic effects in cardiomyocytes could be affecting their function before being lethal, a hERG assay was performed according to the manufacturer’s protocol Predictor hERG Fluorescence Polarization Assay (Invitrogen). Briefly, inhibition of hERG channel was analysed by competition of BNIPSpd and a high-affinity red fluorescent hERG channel ligand. BNIPSpd (9) was mixed with the ligand and membranes containing hERG channel, incubated for 2 hrs at RT and the fluorescence polarization was measured using 530 / 590 nm ex/em filters using the Synergy 2 plate reader (Biotek)."}, "[4]": {"tested_on": "Hepatocytes", "assay": "MTT cytotoxicity on hepatocytes", "format": "cell-based", "conditions": "MTT", "procedure": "as §2"}, "[5]": {"tested_on": "Neurons", "assay": "MTT cytotoxicity on neurons", "format": "cell-based", "procedure": "as §2"}, "[6]": {"assay": "Snapshot pharmacokinetics in blood after intravenous injection", "format": "in vivo, BALB/c mice", "conditions": "5 mg/kg intravenous", "procedure": "The pharmacokinetic profile of BNIPSpd was determined following intravenous injection of 5 mg/kg in BALB/c mice. The blood was collected from tail veins after 0, 5, 15, 30, 45 min, 1, 3, 24, 48 and 72 h of drug administration. Blood concentrations of the drug were analysed by UHPLC- ESI-MS/MS.\nSupplementary file pntd.0006180.s006.tif: S5 Fig In vivo efficacy testing of BNIPSpd (9). A) Mice were infected with 10^4 Luc^+ trypomastigotes by intraperitoneal injection. Treatments (BZN, benznidazole at 100 mg/kg/day per os, and BNIPSpd (9) at 5 mg/kg/day by intravenous injection) were initiated 7 days after infection, as well as the respective controls (KP, Kolliphor HS 15 20% per os and DMSO 10% by intravenous injection). […] In the lower panel, bioluminescence signal of whole mice represented in average radiance (photons/sec/cm^2/sr) quantified before and after treatment. […] B) Snapshot Pharmacokinetics of BNIPSpd (9) in BALB/c mice by quantification of BNIPSpd (9) in the blood of mice by UHPLC-MS/MS ESI+ at different time-points after administration of a 5 mg/kg dose by intravenous injection. […] The dashed line represents the value of EC50 for BNIPSpd (9) in the in vitro assay against T. cruzi amastigotes, and the dotted line represents the lower limit of quantification of the technique. […]"}}, "note": "Entries after “also recorded” stand apart in the source; their conditions may differ.", "data": [{"smiles": "O=C1c2cccc3cccc(c23)C(=O)N1CCCNCCCCNCCCNCCCN1C(=O)c2cccc3cccc(c23)C1=O", "note": "[Compound 9, BNIP Spermidine]", "values": [{"measurement": "CC50 at 72 h", "setting": "[1]", "result": "24.5 ± 0.45", "unit": "µM"}, {"measurement": "Selectivity Index", "setting": "[2]", "result": 8.8}, {"measurement": "selectivity ratio", "setting": "[3]", "result": "~1"}, {"measurement": "Hepatotoxicity (Hepatocytes) cytotoxicity", "setting": "[4]", "result": "≥ 3.1", "unit": "µM"}, {"measurement": "Neurotoxicity (Neurons) cytotoxicity", "setting": "[5]", "result": "≥ 3.9", "unit": "µM"}, {"measurement": "Highest plasma concentration detected", "setting": "[6]; at the 5 min time-point", "result": 1.70, "unit": "µM"}, {"measurement": "Blood level after the 3 h time-point", "setting": "[6]; 3 h up to 72 h, lower limit of quantification 8.1 nM, listed as BNIPSpd (9)", "result": "below the level of detection; also recorded: no longer detected"}]}]}
